{"source": "paper PMC3486420", "about": "“In Vitro and In Vivo Characterizations of Chiglitazar, a Newly Identified PPAR Pan-Agonist” (PPAR Research, 2012)", "key": {"SMMC-7721 cells": {"system": "SMMC-7721 cells", "assay": "Gene expression by RT-PCR in SMMC-7721 cells", "assay_type": "cell-based, human", "settings": "48 h, 10 μM rosiglitazone, 10 μM chiglitazar", "from_the_text": "cDNAs for human retinoid X receptor (hRXR), PPARα, PPARγ, and PPARδ were obtained by reverse transcriptase polymerase chain reaction (RT-PCR) from human liver or adipose tissues. Amplified cDNAs were cloned into pcDNA3.1 expression vector (Invitrogen, Carlsbad, CA, USA). The integrity and fidelity of all constructs made were verified by DNA sequencing. Luciferase reporter plasmids, ACOX promoter for PPARγ and pHD(X3)-luc for PPARα, were kind gifts of Drs. TM McIntyre (University of Utah, USA) and RA Rachubinski (University of Alberta, Canada), respectively. PPRE-luc for PPARδ was constructed based on the previous report by insertion of the annealed oligonucleotides having four copies of the CYP4A6 PPRE (4 × […]) into the upstream of the luciferase coding sequence in pGL3-promoter vector (Promega, Madison, WI, USA). pCMVβGal was purchased from Clontech (Palo Alto, CA, USA). The mouse 3T3-L1 preadipocyte cell line, skeletal muscle C2C12 cell line, and macrophage RAW267.4 cell line and the human osteosarcoma U2OS cell line were obtained from the American Type Culture Collection (ATCC, Rockville, MD, USA). The human hepatoma SMMC-7721 cell line was obtained from the Cell Culture Center of Chinese Academy of Medical Sciences (Beijing, China). Cell lines were cultured in medium of DMEM (3T3-L1, C2C12, and SMMC-7721), RPMI 1640 (RAW267.4), or McCoy's 5A (U2OS), containing 10% fetal bovine serum (FBS), 50 μg/mL streptomycin, and 50 units/mL penicillin at 37°C in a humidified incubator with 5% CO2.\nTotal RNA was extracted from cells or tissues with an RNeasy minikit (Qiagen, Valencia, CA, USA). The first-strand cDNA was synthesized using the oligo(dT) primers, followed by using SuperScript II reverse transcriptase (Invitrogen) according to the manufacturer's instructions. The PCR amplifications were performed in 10 μL of reaction mixture volume containing 0.8 μL of cDNA, 10 mM Tris-HCl (pH 8.3), 50 mM KCl, 1.5 mM MgCl2, 0.1% Triton X-100, 0.2 mM deoxynucleotide triphosphates, 0.4 μM primers, and 0.25 U of Taq polymerase (TaKaRa Biotechnology Co., Ltd, China). Taq DNA polymerase was added to each tube after a treatment of 2 min at 94°C. This was followed by 22–30 cycles of denaturation (23 s at 94°C), annealing (20 s at 55°C), extension (30 s at 72°C), and a final extension step of 2 min. PCR products were analyzed by electrophoresis on a 1.5% agarose gel stained with ethidium bromide.\nFigure 1 In vitro regulation of gene expression by chiglitazar. (a) Endogenous expression of individual PPAR subtypes in cell lines. […]. The expression change of referred genes induced by different compounds was normalized against internal control (36B4 or GAPDH) and then compared with vehicle control treatment. The data shown are averaged from 3 independent experiments."}, "db/db mice": {"system": "db/db mice", "assay": "Oral treatment of diabetic db/db mice (glucose, insulin, IPGTT, body and fat pad weight)", "assay_type": "in vivo, mouse", "from_the_text": "Male db/db mice (BKS.Cg-m +/+ LEPR^db) in 6-7 weeks were purchased from The Jackson Laboratory (Bar Harbor, ME, USA). Male KKAy and C57BL/6J mice in 8–10 weeks were obtained from the Institute of Animal Science, Chinese Academy of Medical Sciences and Peking Union Medical College (Beijing, China). Animals were randomly sorted into different treatment groups (8–10 per group). […] Plasma glucose levels were examined at various time points by Accu-Chek Advantage II Glucose Strips (Roche Diagnostics, Basel, Switzerland) and measured by Accu-Chek Advantage (Roche Diagnostics). Animals were sacrificed 24 h after the last dosing and abdominal fat pad, liver, and skeletal muscle from KKAy mice and abdominal fat pad from db/db mice were taken for gene expression analysis.\nFor intraperitoneal glucose tolerance test (IPGTT), db/db mice dosed for 14 days were fasted overnight, followed by an intraperitoneal injection of glucose (2 g kg^−1). Blood samples were taken for measurement of plasma glucose before and 30, 60, and 120 min after the glucose load. The area under curves (AUC) was calculated to evaluate the IPGTT results. To determine plasma insulin concentrations, blood samples were taken from db/db mice dosed with different reagents or vehicle for 0, 3, 6, and 9 d, and insulin levels were measured by Insulin ELISA Kit (Roche Diagnostics) following the instructions from the manufacture.\nFigure 2 In vivo effects on blood glucose control and insulin sensitization of chiglitazar. Male db/db (a, c and d) and male KKAy mice (b) were treated with vehicle (Ctrl), rosiglitazone (Ros), or chiglitazar (Chi) at the indicated doses for various days. Plasma glucose (a and b) and insulin (c) levels were measured at the indicated time points. […] Data are expressed as mean ± SE.\nFigure 4 Influence in body and abdominal fat pad weights of chiglitazar. […] Changes in body weight were evaluated at the indicated days (b), and the fat pads were weighed from the scarified animals at day 15 (c). ^# P < 0.05 compared with day 0, and *P < 0.05 compared with Ctrl. n = 8 per group for KKAy, and n = 10 per group for db/db. Data are expressed as mean ± SE."}}, "data": [{"smiles": "O=C(c1ccc(F)cc1)c1ccccc1NC(Cc1ccc(OCCn2c3ccccc3c3ccccc32)cc1)C(=O)O", "note": "(stereo not shown) [Chi, 2-[(2-(4-fluorobenzoyl)phenyl)amino]-3-[4-(2-carbazolylethoxy)-phenyl]-propionic acid]", "values": [{"measurement": "Expression of PPARγ downstream genes AOX, LIPC and HSL", "setting": "SMMC-7721 cells; vs vehicle", "result": "upregulated"}, {"measurement": "Expression of LDL receptor (LDLR)", "setting": "SMMC-7721 cells; 50 μM WY14643, 5 μM 2-Bro", "result": "kept no change"}, {"measurement": "Glucose tolerance (IPGTT)", "setting": "db/db mice; db/db mice, 20 mg kg^−1 oral daily, 14 days", "result": "increased"}, {"measurement": "Body weight", "setting": "db/db mice; db/db mice, 5, 10 and 20 mg kg^−1 oral daily, 14 days", "result": "dose-dependent weight gain"}, {"measurement": "Abdominal fat pad weights", "setting": "db/db mice; db/db mice, chiglitazar 20 mg kg^−1 vs rosiglitazone 5 mg kg^−1, 14 days", "result": "less increase"}, {"measurement": "BG (blood glucose) levels", "setting": "db/db mice; db/db mice, oral daily, 5 to 20 mg kg^−1, 14 days", "result": "significantly lowered"}, {"measurement": "Plasma insulin concentrations", "setting": "db/db mice; db/db mice, oral daily, different doses, compared with vehicle control", "result": "markedly decreased"}]}]}
